Reference: ChEMBL document CHEMBL3611972, “Leishmanicidal, antiproteolytic, and mutagenic evaluation of alkyltriazoles and alkylphosphocholines” (Eur J Med Chem, 2015)

What was measured:
[1] = Inhibition of Leishmania mexicana cysteine protease r-CPB2.8 using Z-FR-AMC fluorogenic substrate by spectrofluorometry
[2] = system: Leishmania amazonensis; test: microbe, parasite or virus in culture; format: functional, organism-based; details: MHOM/BR/71973/M2269, 72 h
Description: Leishmanicidal activity against Leishmania amazonensis MHOM/BR/71973/M2269 promastigotes assessed as reduction in surviving parasites incubated for 72 hrs by Neubauer's chamber based cell counting method

[3] = Cytotoxicity against mouse peritoneal macrophages assessed as reduction in cell viability incubated for 72 hrs by MTT assay; format: cell-based, Peritoneal macrophage cell
[4] = Selectivity index, ratio of CC50 for mouse peritoneal macrophages to IC50 for Leishmania amazonensis MHOM/BR/71973/M2269 amastigotes infected in mouse peritoneal macrophages; format: functional
[5] = system: Leishmania amazonensis; test: Leishmanicidal activity against Leishmania amazonensis MHOM/BR/71973/M2269 amastigotes infected in mouse peritoneal macrophages assessed as reduction in surviving parasites incubated for 72 hrs by Giemsa staining based optical light microscopy; format: functional, organism-based; details: MHOM/BR/71973/M2269, 72 h
[6] = system: Salmonella typhimurium; test: Mutagenicity in Salmonella typhimurium TA102 assessed as mutagenicity index at 5 ug/plate incubated for 90 mins at 37 degC in presence of liver S9 fractions by Ames test relative to untreated control; format: toxicity, organism-based; details: salmonella enterica subsp. enterica serovar typhimurium, s9, 1.5 h
[7] = system: Salmonella typhimurium; test: Mutagenicity in Salmonella typhimurium TA100 assessed as number of revertants at 5 ug/plate incubated for 90 mins at 37 degC in presence of liver S9 fractions by Ames test relative to untreated control; details: salmonella enterica subsp. enterica serovar typhimurium, s9, 1.5 h
[8] = system: Salmonella typhimurium; test: Mutagenicity in Salmonella typhimurium TA102 assessed as number of revertants at 5 ug/plate incubated for 90 mins at 37 degC in presence of liver S9 fractions by Ames test relative to control; details: salmonella enterica subsp. enterica serovar typhimurium, s9, 1.5 h
[9] = system: Salmonella typhimurium; test: Mutagenicity in Salmonella typhimurium TA98 assessed as mutagenicity index at 10 ug/plate incubated for 90 mins at 37 degC in absence of liver S9 fractions by Ames test relative to control; format: toxicity, organism-based; details: salmonella enterica subsp. enterica serovar typhimurium, 1.5 h
[10] = system: Salmonella typhimurium; test: Mutagenicity in Salmonella typhimurium TA98 assessed as mutagenicity index at 10 ug/plate incubated for 90 mins at 37 degC in absence of liver S9 fractions by Ames test relative to untreated control; format: toxicity, organism-based; details: salmonella enterica subsp. enterica serovar typhimurium, 1.5 h

SMILES	IC50 [1] [µM]	IC50 [2] [µM]	Ratio CC50/IC50 [4]	IC50 [5] [µM]	also measured
CC(C)C[C@H](NC(=O)[C@H]1O[C@@H]1C(=O)O)C(=O)NCCCCN=C(N)N [E-64]	0.125				
OCCCc1cn(CCCCCCCCCI)nn1		67.7			
CS(=O)(=O)OCCCCCCCCCCCCn1cc(CO)nn1		51.7			
CS(=O)(=O)OCCCCCCCCCCCCn1cc(CCC(=O)O)nn1		225			
CCOC(=O)c1cn(CCCCCCCCCCCCI)nn1	6.08	27.9	5.28	17.7	CC50 at 72 h [3]: 93.4 µM
C[N+](C)(C)CCOP(=O)([O-])OCCCCCCCCCN=[N+]=[N-]		136			
N=C(N)c1ccc(OCCCCCOc2ccc(C(=N)N)cc2)cc1 [PENTAMIDINE]			1.69	6.62	
CCOC(=O)c1cn(CCCCCCOS(C)(=O)=O)nn1		219			
CS(=O)(=O)OCCCCCCCCCn1cc(CCCO)nn1		82.2			
CS(=O)(=O)OCCCCCCCCCCCCn1cc(CCCOS(C)(=O)=O)nn1	4.53	4.01	2.14	70.2	CC50 at 72 h [3]: 156 µM
CCOC(=O)c1cn(CCCCCCCCCCCCOS(C)(=O)=O)nn1		75.9			
OCCCc1cn(CCCCCCCCCF)nn1		81.7			
CCOC(=O)c1cn(CCCCCCCCCI)nn1		47.6			
OCCCc1cn(CCCCCCCCCCCCF)nn1	2.26	37.1	9.83	15.1	CC50 at 72 h [3]: 163 µM
C[C@@H]1[C@H](O)[C@@H](C)/C=C/C=C/C=C/C=C/C=C/C=C/C=C/[C@H](O[C@@H]2O[C@H](C)[C@@H](O)[C@H](N)[C@@H]2O)C[C@@H]2O[C@](O)(C[C@@H](O)C[C@@H](O)[C@H](O)CC[C@@H](O)C[C@@H](O)CC(=O)O[C@H]1C)C[C@H](O)[C@H]2C(=O)O [AMPHOTERICIN B]		4.7	4.44	6.1	
CC(=O)OCCCc1cn(CCCCCCCCCCCCOS(C)(=O)=O)nn1	1.02	30.3		56.1	CC50 at 72 h [3]: 26.6 µM
Nc1ccc2cc3ccccc3cc2c1 [2-AMINOANTHRACENE]					Revertants [6]: 2510 revertants/plate; Revertants [7]: 1020 revertants/plate; Revertants [8]: 2510 revertants/plate
C[N+](C)(C)CCOP(=O)([O-])OCCCCCCCCCCCCN=[N+]=[N-]	8.35	25.6	33.76	3.81	CC50 at 72 h [3]: 129 µM
OCCCc1cn(CCCCCCCCCCCCI)nn1	1.22	19.3	2.79	23.7	CC50 at 72 h [3]: 66.2 µM
CS(=O)(=O)OCCCCCCn1cc(CCCO)nn1		229			
Nc1ccc([N+](=O)[O-])cc1N					Activity_index [9]: 1350; Activity_index [10]: 1350
